Assay results reported in patent publication US9409908B2 (priority 2012, dated 2016).
Structures can show the parent of a compound that is named as a salt. Where two headings read alike, the source gives them in different places.

Columns and labels:
[1] = molecular target: purified human plasma kallikrein (Homo sapiens (Human), UniProt P03952); test: biochemical; type: biochemical; details: read-out: Plasma Kallikrein Ki
[2] = molecular target: purified human Factor XIa (Homo sapiens (Human), UniProt P03951); test: biochemical; type: biochemical; details: read-out: Factor XIa Ki
Sequence of purified human Factor XIa (P03951 whole entry, looked up): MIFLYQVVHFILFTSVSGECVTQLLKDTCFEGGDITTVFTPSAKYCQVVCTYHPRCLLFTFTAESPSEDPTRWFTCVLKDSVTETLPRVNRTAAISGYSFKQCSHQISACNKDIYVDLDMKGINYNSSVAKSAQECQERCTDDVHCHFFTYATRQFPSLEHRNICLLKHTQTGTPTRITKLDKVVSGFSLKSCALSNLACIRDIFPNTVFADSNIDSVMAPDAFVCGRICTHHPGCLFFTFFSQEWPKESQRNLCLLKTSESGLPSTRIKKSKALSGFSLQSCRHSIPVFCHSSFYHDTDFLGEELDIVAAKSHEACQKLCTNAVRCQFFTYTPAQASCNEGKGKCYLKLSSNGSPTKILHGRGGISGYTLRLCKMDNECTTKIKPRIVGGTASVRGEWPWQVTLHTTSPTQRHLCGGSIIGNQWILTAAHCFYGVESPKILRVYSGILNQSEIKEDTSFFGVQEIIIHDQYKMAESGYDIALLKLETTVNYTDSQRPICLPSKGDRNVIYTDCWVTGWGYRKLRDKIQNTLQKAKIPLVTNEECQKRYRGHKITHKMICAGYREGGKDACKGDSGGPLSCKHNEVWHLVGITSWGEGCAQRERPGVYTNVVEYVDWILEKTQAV
Sequence of purified human Factor XIa (P03951 whole entry partner, looked up): as the sequence (P03951 whole entry, looked up) above

Sequence of purified human plasma kallikrein (P03952 whole entry, looked up): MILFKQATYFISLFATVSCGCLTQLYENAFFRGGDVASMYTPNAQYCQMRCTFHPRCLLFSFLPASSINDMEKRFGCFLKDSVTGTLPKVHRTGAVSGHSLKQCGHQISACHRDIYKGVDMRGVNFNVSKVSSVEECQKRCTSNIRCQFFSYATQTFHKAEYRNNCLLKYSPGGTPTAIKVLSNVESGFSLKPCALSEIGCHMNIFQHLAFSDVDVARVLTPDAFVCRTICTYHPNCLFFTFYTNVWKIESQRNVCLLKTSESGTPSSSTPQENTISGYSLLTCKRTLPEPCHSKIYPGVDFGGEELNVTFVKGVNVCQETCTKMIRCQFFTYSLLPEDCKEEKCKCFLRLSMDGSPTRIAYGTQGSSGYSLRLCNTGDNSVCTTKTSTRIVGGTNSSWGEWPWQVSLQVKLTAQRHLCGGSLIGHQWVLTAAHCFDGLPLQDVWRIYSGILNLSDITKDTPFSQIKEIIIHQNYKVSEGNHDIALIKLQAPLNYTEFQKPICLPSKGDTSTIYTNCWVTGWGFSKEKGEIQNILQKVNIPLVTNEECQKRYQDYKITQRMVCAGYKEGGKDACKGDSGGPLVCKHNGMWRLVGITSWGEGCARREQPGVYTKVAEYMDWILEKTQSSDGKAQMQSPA
Sequence of purified human plasma kallikrein (P03952 whole entry partner, looked up): as the sequence (P03952 whole entry, looked up) above

SMILES	Ki [1]	Ki [2]	Ki ([1]; TFA salt)	Ki ([2]; TFA salt)
C[C@@H]1CCC[C@H](N2CCC(c3c(F)ccc(Cl)c3F)=CC2=O)c2cc(ccn2)-c2ccc(Nc3nnc(C4CC4)o3)cc2NC1=O [Example 39, (10R,14S)-14-[4-(3-Chloro-2,6-difluorophenyl)-6-oxo-1,2,3,6-tetrahydropyridin-1-yl]-5-[(5-cyclopropyl-1,3,4-oxadiazol-2-yl)amino]-10-methyl-8,16-diazatricyclo[13.3.1.0^2,7]nonadeca-1(19),2(7),3,5,15,17-hexaen-9-one, TFA salt]	2 nM	0.67 nM		
COC(=O)Nc1ccc2c(c1)NC(=O)[C@H](C)CC(=O)C[C@H](N1CCC(c3c(F)ccc(Cl)c3F)=CC1=O)c1cc-2ccn1 [Example 22, Methyl N-[(10R,14S)-14-[4-(3-chloro-2,6-difluorophenyl)-6-oxo-1,2,3,6-tetrahydropyridin-1-yl]-10-methyl-9,12-dioxo-8,16-diazatricyclo[13.3.1.0^2,7]nonadeca-1(19),2,4,6,15,17-hexaen-5-yl]carbamate, TFA salt]	352 nM	> 438 nM		
COC(=O)Nc1ccc2c(c1)NC(=O)[C@H](C)CCC[C@H](N1CCC(c3ccnc(N)c3)=CC1=O)c1cc-2ccn1 [Example 154, Methyl N-[(10R,14S)-14-[4-(2-aminopyridin-4-yl)-6-oxo-1,2,3,6-tetrahydropyridin-1-yl]-10-methyl-9-oxo-8,16-diazatricyclo[13.3.1.0^2,7]nonadeca-1(19),2,4,6,15,17-hexaen-5-yl]carbamate, 2 TFA salt]	118 nM	23.6 nM		
COC(=O)Nc1ccc2c(c1)NC(=O)[C@H](C)CCC[C@H](N1CCC(c3cccc(Cl)c3OC)=CC1=O)c1cc-2ccn1 [Example 118, Methyl N-[(10R,14S)-14-[4-(3-chloro-2-methoxyphenyl)-6-oxo-1,2,3,6-tetrahydropyridin-1-yl]-10-methyl-9-oxo-8,16-diazatricyclo[13.3.1.0^2,7]nonadeca-1(18),2,4,6,15(19),16-hexaen-5-yl]carbamate]	2030 nM	> 404 nM		
COC(=O)Nc1ccc2c(c1)NC(=O)[C@H](C)CCC[C@H](N1CC(C)C(c3c(F)ccc(Cl)c3F)=CC1=O)c1cc-2ccn1 (stereo partly drawn) [Example 73, Methyl N-[(10R,14S)-14-[4-(3-chloro-2,6-difluorophenyl)-3-methyl-6-oxo-1,2,3,6-tetrahydropyridin-1-yl]-10-methyl-9-oxo-8,16-diazatricyclo[13.3.1.0^2,7]nonadeca-1(19),2(7),3,5,15,17-hexaen-5-yl]carbamate, TFA salt]	6 nM	0.88 nM		
COC(=O)Nc1ccc2c(c1)NC(=O)[C@H](C)CCC[C@H](N1CCC(C3CCCC(C)C3)=CC1=O)c1cc-2ccn1 (single isomer, unassigned) [Example 225, TFA salt]			95.5 nM	26.1 nM
COc1ccc2c(c1)NC(=O)[C@H](C)CCC[C@H](N1CCC(c3c(F)ccc(Cl)c3F)=CC1=O)c1cc-2ccn1 [Example 17, (10R,14S)-14-[4-(3-chloro-2,6-difluorophenyl)-6-oxo-1,2,3,6-tetrahydropyridin-1-yl]-5-methoxy-10-methyl-8,16-diazatricyclo[13.3.1.0^2,7]nonadeca-1(19),2,4,6,15,17-hexaen-9-one, TFA salt]	114 nM	45.3 nM		
C[C@@H]1CCC[C@H](N2CCC(c3c(-c4cn[nH]c4)ccc(Cl)c3F)=CC2=O)c2cc(ccn2)-c2ccccc2NC1=O [Example 55, (10R,14S)-14-{4-[3-Chloro-2-fluoro-6-(1H-pyrazol-4-yl)phenyl]-6-oxo-1,2,3,6-tetrahydropyridin-1-yl}-10-methyl-8,16-diazatricyclo[13.3.1.0^2,7]nonadeca-1(19),2,4,6,15,17-hexaen-9-one, TFA salt]	19 nM	2.73 nM		
COC(=O)Nc1ccc2c(c1)NC(=O)[C@H](C)CCC[C@H](N1CCC(c3c(C)ccc(Cl)c3F)=CC1=O)c1cc-2ccn1 [Example 2, Methyl N-[(10R,14S)-14-[4-(3-chloro-2-fluoro-6-methylphenyl)-6-oxo-1,2,3,6-tetrahydropyridin-1-yl]-10-methyl-9-oxo-8,16-diazatricyclo[13.3.1.0^2,7]nonadeca-1(19),2,4,6,15,17-hexaen-5-yl]carbamate, TFA salt]	5 nM	0.23 nM		
C[C@@H]1CCC[C@H](n2ccc(-c3cccc(Cl)c3F)cc2=O)c2cc(ccn2)-c2c(F)cc(F)cc2NC1=O [Example 212, (10R,14S)-14-[4-(3-chloro-2-fluorophenyl)-2-oxo-1,2-dihydropyridin-1-yl]-3,5-difluoro-10-methyl-8,16-diazatricyclo[13.3.1.0^2,7]nonadeca-1(19),2(7),3,5,15,17-hexaen-9-one, TFA salt]	286 nM	111 nM		
COC(=O)Nc1ccc2c(c1)NC(=O)[C@H](C)CCC[C@H](n1ncc(-c3c(F)ccc(Cl)c3F)cc1=O)c1cc-2ccn1 [Example 11, Methyl N-[(10R,14S)-14-[4-(3-chloro-2,6-difluorophenyl)-6-oxo-1,6-dihydropyridazin-1-yl]-10-methyl-9-oxo-8,16-diazatricyclo[13.3.1.0^2,7]nonadeca-1(19),2(7),3,5,15,17-hexaen-5-yl]carbamate, TFA salt]	14 nM	6.77 nM		
CO[C@H]1[C@H](O)[C@@H](CO)OC(Nc2ccc3c(c2)NC(=O)[C@H](C)CCC[C@H](N2CCC(c4c(F)ccc(Cl)c4F)=CC2=O)c2cc-3ccn2)[C@@H]1O (stereo partly drawn) [Example 129, (10R,14S)-14-[4-(3-chloro-2,6-difluorophenyl)-6-oxo-1,2,3,6-tetrahydropyridin-1-yl]-5-{[(3R,4S,5R,6R)-3,5-dihydroxy-6-(hydroxymethyl)-4-methoxyoxan-2-yl]amino}-10-methyl-8,16-diazatricyclo[13.3.1.0^2,7]nonadeca-1(19),2,4,6,15,17-hexaen-9-one]	21.7 nM	8.29 nM		
COC(=O)c1ccc2c(c1)-c1ccnc(c1)[C@@H](N1CCC(c3c(C(F)(F)F)ccc(Cl)c3F)=CC1=O)CCC[C@@H](C)C(=O)N2 [Example 186, Methyl (10R,14S)-14-{4-[3-chloro-2-fluoro-6-(trifluoromethyl)phenyl]-6-oxo-1,2,3,6-tetrahydropyridin-1-yl}-10-methyl-9-oxo-8,16-diazatricyclo[13.3.1.0^2,7]nonadeca-1(19),2(7),3,5,15,17-hexaene-4-carboxylate]	60.5 nM	57.9 nM		
COC(=O)c1ccc2c(c1)-c1cccc(c1)[C@@H](N1CCC(c3c(Br)ccc(Cl)c3F)=CC1=O)CCC[C@@H](C)C(=O)N2 [Example 163, Methyl (10R,14S)-14-[4-(6-bromo-3-chloro-2-fluorophenyl)-6-oxo-1,2,3,6-tetrahydropyridin-1-yl]-10-methyl-9-oxo-8-azatricyclo[13.3.1.0^2,7]nonadeca-1(19),2,4,6,15,17-hexaene-4-carboxylate]	224 nM	> 398 nM		
C[C@@H]1CCC[C@H](N2CCC(c3c(Br)ccc(Cl)c3F)=CC2=O)c2cc(ccn2)-c2cc(F)c(F)cc2NC1=O [Example 206, (10R,14S)-14-[4-(6-bromo-3-chloro-2-fluorophenyl)-6-oxo-1,2,3,6-tetrahydropyridin-1-yl]-4,5-difluoro-10-methyl-8,16-diazatricyclo[13.3.1.0^2,7]nonadeca-1(19),2(7),3,5,15,17-hexaen-9-one, TFA salt]	27.5 nM	11.8 nM		
